This note sets out measurements from paper PMC12749748, “Chemically-induced degradation of the endoplasmic-reticulum stress sensor IRE1 by a VHL-recruiting chimera” (Nature Communications, 2025).

What all share (assay type): cell-based
In assay [1] the test system is OPM2 cells. As to the kind of experiment: Incucyte cell confluency, OPM2 cells. The note with it: OPM2 shIRE1 cells, titration. The procedure: For non-adherent AMO1, KMS27, and OPM2 cells, cells were plated at 5000 cells/well in ultra-low attachment (ULA) 96-well plates (Costar, #7007) and centrifuged at 600 × g for 5 min for spheroid formation. For adherent U2OS and Colo201 cells, 2000 cells/well were seeded in a clear flat-bottom 96-well plate (Costar, #3595). Treatments were added at the time of cell seeding, and cells were cultured in complete RPMI media to a final volume of 200 µL/well. Cultures were maintained at 37 °C throughout the duration of the experiment. Cell confluency was tracked using the Incucyte live-cell imaging system (Sartorius S3). Picture frames were captured every 4 h with a 4× objective, and cell confluency (%) from the total well area as a function of time was calculated using the Incucyte software (version 2023 A Rev2).

Assay [2] concerns the target T1, IRE1 E621A, E836A (Homo sapiens, UniProt O75460+P40337, E621A/E836A).
T1 construct: N2731; host or cells: HEK293T
Kind of assay: NanoLuc signal IRE1 depletion, IRE1 E621A, E836A, HEK293T cells. To be noted: E836A double mutant. Here is the method: (§1) 8 × 10^5 293T cells per well were seeded in 6-well plates (Costar, #3516) and incubated at 37 °C, 5% CO2 for 6 h. A mixture of 0.2 µg ERN1 (IRE1)-NanoLuc Fusion Vector (Promega, NV1321), 2 µg HaloTag-VHL Fusion Vector (Promega, N2731), 6 µl FuGENE HD Transfection Reagent (Promega, E2311), and 100 µL Opti-MEM I reduced serum medium (Gibco, #31985062) per well was incubated at room temperature for 20 min before adding to cells. For expression of IRE1 mutants, site-directed mutagenesis was performed using the ERN1-NanoLuc Fusion Vector as the DNA template, and the transfection mixture was prepared in the same way as WT IRE1. After 18 h, cells from 6-well plates were trypsinized, resuspended in Opti-MEM I reduced serum medium, and reseeded into 96-well plates (Costar, #3917), with or without the addition of HaloTag NanoBRET 618 Ligand (Promega, G9801). After 18 h of incubation, a titration of G6374 (dilutions made in Opti-MEM I reduced serum medium) was added to the cells. After 2 h of G6374 treatment, NanoBRET Nano-Glo Substrate (Promega, N1571) was added to cells. The 96-well plates were imaged by GloMax Discover Microplate Reader (Promega, GM3000) with the default “BRET: NanoBRET 618” protocol (Donor: 450 BP; Acceptor: 600 LP; Integration: 0.3 s). Data analysis was performed according to the user manual.

Assay [3] has as its target T2, IRE1 H579A:VHL (Homo sapiens, UniProt O75460+P40337, H579A).
T2 construct: N2731; host or cells: HEK293T
Kind of assay: NanoBRET IRE1:VHL interaction, IRE1 H579A, HEK293T cells. Here is the method:
as §1
On the technique in general: In BRET a luciferase serves as donor, and the signal depends on an acceptor being close.

Assay [4] has as its system AMO1 cells. Kind of assay: Global proteomics of protein depletion in AMO1 cells. The note with it: 1 µM, 4 h. The procedure: One milligram of protein lysate in denaturing buffer (8 M Urea, 20 mM HEPES, pH 8.0) was reduced (5 mM dithiothreitol (DTT), 45 min at 37 °C), alkylated (15 mM iodoacetamide (IAA), 20 min at room temperature in the dark), and quenched (5 mM DTT, 15 min at room temperature in the dark). Proteins were pelleted by chloroform-methanol precipitation. The resulting pellet was resuspended in denaturing buffer, diluted to 4 M Urea, and digested for 4 h at 37 °C with lysyl-endopeptidase (Wako) at an enzyme to protein ratio of 1:100. The sample was further diluted to 1.3 M Urea and subjected to overnight enzymatic digestion at 37 °C with sequencing grade trypsin (Promega, enzyme: protein ratio = 1:50). Resultant peptides were acidified with 20% Trifluoroacetic acid (TFA, 1% final concentration), centrifuged at 18,000 × g for 15 min, and desalted using a Sep-Pak C18 column (Waters). […]
For the global proteome, LC-MS/MS analysis was performed by injecting 1 μL of each fraction on an Orbitrap Eclipse mass spectrometer (Thermo Fisher) coupled to a Dionex Ultimate 3000 RSLC (Thermo Fisher) employing a 25 cm IonOpticks Aurora Series column (IonOpticks, Parkville, Australia) with a gradient of 2% to 30% buffer B (98% ACN, 2% H2O with 0.1% FA, flow rate = 300 nL/min). Global proteome samples were analyzed with a total run time of 95 min. […]

T1 sequence (O75460 19-977 E621A/E836A): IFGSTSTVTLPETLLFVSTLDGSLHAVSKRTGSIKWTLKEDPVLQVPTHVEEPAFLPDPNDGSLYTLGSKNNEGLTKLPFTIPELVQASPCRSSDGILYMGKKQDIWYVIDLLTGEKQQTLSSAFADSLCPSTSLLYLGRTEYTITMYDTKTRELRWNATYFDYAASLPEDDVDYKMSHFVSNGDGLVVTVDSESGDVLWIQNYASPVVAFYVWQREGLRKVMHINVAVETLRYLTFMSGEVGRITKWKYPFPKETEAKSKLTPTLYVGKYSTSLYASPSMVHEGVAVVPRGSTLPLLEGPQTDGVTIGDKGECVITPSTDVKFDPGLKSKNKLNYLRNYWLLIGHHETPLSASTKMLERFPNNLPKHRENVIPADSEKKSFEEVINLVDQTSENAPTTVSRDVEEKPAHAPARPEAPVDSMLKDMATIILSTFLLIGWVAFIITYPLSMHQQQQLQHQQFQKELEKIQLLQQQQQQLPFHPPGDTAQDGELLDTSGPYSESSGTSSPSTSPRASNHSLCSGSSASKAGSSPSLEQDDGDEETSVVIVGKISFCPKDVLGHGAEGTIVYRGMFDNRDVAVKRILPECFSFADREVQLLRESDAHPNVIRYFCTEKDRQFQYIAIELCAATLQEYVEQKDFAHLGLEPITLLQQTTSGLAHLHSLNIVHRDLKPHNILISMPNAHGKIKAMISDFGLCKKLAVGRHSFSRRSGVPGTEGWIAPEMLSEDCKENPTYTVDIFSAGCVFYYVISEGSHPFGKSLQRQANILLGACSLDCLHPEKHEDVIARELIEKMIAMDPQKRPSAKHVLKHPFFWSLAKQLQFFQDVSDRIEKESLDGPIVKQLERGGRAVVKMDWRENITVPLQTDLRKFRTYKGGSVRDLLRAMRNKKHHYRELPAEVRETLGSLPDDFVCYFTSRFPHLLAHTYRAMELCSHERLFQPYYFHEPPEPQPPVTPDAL
T1 sequence (P40337 whole entry): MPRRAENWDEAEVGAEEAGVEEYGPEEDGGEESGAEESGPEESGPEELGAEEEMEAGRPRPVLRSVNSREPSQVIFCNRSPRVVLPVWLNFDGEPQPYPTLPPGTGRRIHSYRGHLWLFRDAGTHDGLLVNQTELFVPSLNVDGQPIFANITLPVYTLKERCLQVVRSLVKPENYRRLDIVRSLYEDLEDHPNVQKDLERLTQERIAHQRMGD
T1 sequence (Q15369 whole entry partner): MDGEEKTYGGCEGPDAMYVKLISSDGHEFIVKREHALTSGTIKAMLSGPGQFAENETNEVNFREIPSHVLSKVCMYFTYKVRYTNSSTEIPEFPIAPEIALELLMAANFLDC
T1 sequence (Q15370 whole entry partner): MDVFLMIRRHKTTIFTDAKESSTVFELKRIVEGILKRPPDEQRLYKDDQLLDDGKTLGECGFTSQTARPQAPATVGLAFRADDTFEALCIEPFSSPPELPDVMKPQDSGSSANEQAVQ
T1 sequence (Q13617 whole entry partner): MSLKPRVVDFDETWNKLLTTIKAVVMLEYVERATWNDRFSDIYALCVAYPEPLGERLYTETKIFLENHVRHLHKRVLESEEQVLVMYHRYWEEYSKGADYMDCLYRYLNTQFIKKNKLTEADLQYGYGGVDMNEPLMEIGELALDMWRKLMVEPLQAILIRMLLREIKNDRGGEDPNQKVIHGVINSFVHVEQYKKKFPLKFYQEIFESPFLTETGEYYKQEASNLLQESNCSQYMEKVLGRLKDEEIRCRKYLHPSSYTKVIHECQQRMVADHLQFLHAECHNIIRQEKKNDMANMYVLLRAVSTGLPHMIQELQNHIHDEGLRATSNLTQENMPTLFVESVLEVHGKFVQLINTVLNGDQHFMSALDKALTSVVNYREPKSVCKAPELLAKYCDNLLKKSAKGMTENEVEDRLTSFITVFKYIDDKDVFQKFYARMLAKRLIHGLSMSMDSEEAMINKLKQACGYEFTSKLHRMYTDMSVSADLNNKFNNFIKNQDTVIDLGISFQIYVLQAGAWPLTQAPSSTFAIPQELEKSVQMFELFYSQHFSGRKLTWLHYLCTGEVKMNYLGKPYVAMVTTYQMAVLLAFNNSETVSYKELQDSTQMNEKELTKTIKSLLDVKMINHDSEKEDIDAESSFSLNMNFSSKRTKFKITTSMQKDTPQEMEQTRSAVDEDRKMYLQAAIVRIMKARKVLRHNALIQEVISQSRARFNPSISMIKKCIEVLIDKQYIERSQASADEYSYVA
T1 sequence (P62877 whole entry partner): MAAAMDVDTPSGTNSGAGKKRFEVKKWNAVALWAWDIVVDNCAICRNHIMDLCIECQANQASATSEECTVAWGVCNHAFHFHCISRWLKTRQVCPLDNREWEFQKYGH
T2 sequence (O75460 19-977 H579A): as the sequence (O75460 19-977 E621A/E836A) above, with H561A, A603E, A818E counted along it
T2 sequence (Q13617 whole entry, further chain): as the sequence (Q13617 whole entry partner) above
T2 sequence (Q15370 whole entry, further chain): as the sequence (Q15370 whole entry partner) above
T2 sequence (P62877 whole entry, further chain): as the sequence (P62877 whole entry partner) above
T2 sequence (P40337 whole entry): as the sequence (P40337 whole entry) above
T2 sequence (Q15369 whole entry, further chain): as the sequence (Q15369 whole entry partner) above

As a reminder, the EC50 is the concentration at which the effect is half-maximal. For `Cc1ncsc1-c1ccc(CNC(=O)[C@@H]2C[C@@H](O)CN2C(=O)[C@@H](NC(=O)CCCCN2CCN([C@H]3CC[C@H](Nc4ncc5ccc(=O)n(C(C)C)c5n4)CC3)CC2)C(C)(C)C)cc1` [G6374], in assay [1], the “growth inhibition (cell confluency)” value was “concentration-dependent growth inhibition”. The DC50 in assay [2] worked out at 110 ± 30 nM. Further, the Dmax in assay [2] (HEK-293T) is 67%. The compound further displayed an EC50 in assay [3] of 450 ± 60 nM. Also, in assay [4], the “protein depletion by global proteomics, G6374 versus G2642” value was “IRE1 as the most substantially and significantly depleted protein target”.
